Measured values reported in patent US20250144067A1, “PERSONALIZED STARVATION THERAPY FOR CANCER” (Faeth Therapeutics, Inc., priority 2021, published 2025).
Where a name gives a salt, the structure may show the parent alone. Read-outs that look alike come from different tables or passages of the source.

Key:
[1] = test system: NCI-H292 lung cancer cells; assay: FDA drug screening, complete media vs cholesterol-free media without statin (TABLE 1); assay type: cell-based, human
[2] = test system: NCI-H292 lung cancer cells; assay: FDA drug screening, complete media vs cholesterol-free media with simvastatin (TABLE 2); assay type: cell-based, human
[3] = Complete minus Cholesterol-free, >0 enhanced anti-cancer activity, about 0 neutral, <0 antagonist
[4] = NCI-H292 cells, cholesterol-free media without statin
[5] = NCI-H292 cells, cholesterol-free media with simvastatin 0.04 μM, cell growth value in FDA drug screen
[6] = NCI-H292 cells, complete media, cell growth value in FDA drug screen
[7] = complete media minus cholesterol-free media + simvastatin, >0 enhanced anti-cancer activity, about 0 neutral, <0 antagonist
[8] = NCI-H292 cells, cholesterol-free media without statin, FDA drug library screen
[9] = NCI-H292 cells, complete media, FDA drug library screen
[10] = NCI-H292 cells, cholesterol-free media with simvastatin 0.04 μM, FDA drug library screen (TABLE 2)
[11] = NCI-H292 cells, complete media, FDA drug library screen (TABLE 2)
[12] = complete media minus cholesterol-free media + simvastatin (0.04 μM), >0 enhanced anti-cancer activity, about 0 neutral, <0 antagonist
[13] = complete vs cholesterol-free media, greater than 0 enhanced anti-cancer activity, about 0 neutral, below 0 antagonists
[14] = NCI-H292 cells, FDA drug library screen, cholesterol-free media with simvastatin 0.04 μM
[15] = NCI-H292 cells, FDA drug library screen, complete media
[16] = complete media vs cholesterol-free media + simvastatin (0.04 μM), >0 enhanced anti-cancer activity, about 0 neutral, <0 antagonist
[17] = NCI-H292 cells, FDA library drug in cholesterol-free media with simvastatin 0.04 μM
[18] = NCI-H292 cells, FDA library drug in complete media

`COc1cc2ncnc(Nc3ccc(F)c(Cl)c3)c2cc1OCCCN1CCOCC1` [Gefitinib] was tested, and the Difference [1, 3] was −0.25, the Cholesterol-free [1, 4] was 0.6996 and the Complete ([1]; NCI-H292 cells, complete media) was 0.4472. The “Cholesterol-free media + simvastatin (0.04 μM)” value [2, 5] was 0.5074, the “Complete Media” value [2, 6] was 0.6027 and the Difference [2, 7] was 0.10.
`Nc1ccn([C@@H]2O[C@H](CO)[C@@H](O)C2(F)F)c(=O)n1` [Gemcitabine (hydrochloride)] showed a Difference [1, 3] of −0.04, a Cholesterol-free [1, 8] of 0.05262 and a Complete [1, 9] of 0.01403. The “Cholesterol-free media + simvastatin (0.04 μM)” value [2, 10] was 0.04392, the “Complete Media” value [2, 11] was 0.02306 and the Difference [2, 12] was −0.02.
For `Nc1ccn([C@@H]2O[C@H](CO)[C@@H](O)C2(F)F)c(=O)n1` [Gemcitabine], the Difference [1, 3] was −0.03, the Cholesterol-free [1, 8] was 0.04572 and the Complete [1, 9] was 0.01326. For the same compound, the “Cholesterol-free media + simvastatin (0.04 μM)” value [2, 10] was 0.08143, the “Complete Media” value [2, 11] was 0.09095 and the Difference [2, 12] was 0.01.
Work on `Cc1ccc(C)c(OCCCC(C)(C)C(=O)O)c1` [Gemfibrozil] yielded a Cholesterol-free [1, 4] of 1.369, a Complete ([1]; NCI-H292 cells, complete media) of 0.9198 and a Difference [1, 13] of −0.45. For the same compound, the “Cholesterol-free media + simvastatin (0.04 μM)” value [2, 14] was 1.808, the “Complete Media” value [2, 15] was 1.701 and the Difference [2, 16] was −0.11.
`C#C[C@]1(O)C=C[C@H]2[C@@H]3CCC4=CC(=O)CC[C@@H]4[C@H]3CC[C@@]21CC` [Gestodene] showed a Difference ([1]; Complete minus Cholesterol-free, greater than 0 enhanced anti-cancer activity, about 0 neutral, below 0 antagonist) of −0.11, a Cholesterol-free ([1]; NCI-H292 cells, FDA drug library screen, cholesterol-free media without statin) of 1.134 and a Complete [1, 15] of 1.023. The “Cholesterol-free media + simvastatin (0.04 μM)” value [2, 17] was 1.543, the “Complete Media” value [2, 18] was 1.003 and the Difference [2, 16] was −0.54.
`C#C[C@]1(O)CC[C@H]2[C@@H]3CCC4=CC(=O)CCC4=C3C=C[C@@]21CC` [Gestrinone] gave a Cholesterol-free [1, 8] of 0.8898, a Complete [1, 9] of 2.026 and a Difference ([1]; complete vs cholesterol-free media, […]) of 1.14. The “Cholesterol-free media + simvastatin (0.04 μM)” value [2, 14] was 1.007, the “Complete Media” value [2, 15] was 1.693 and the Difference ([2]; complete media minus cholesterol-free media + simvastatin, […]) was 0.69.
`CCc1nc(C(N)=O)c(Nc2ccc(N3CCC(N4CCN(C)CC4)CC3)c(OC)c2)nc1NC1CCOCC1` [Gilteritinib] was tested, and the Cholesterol-free [1, 8] was 0.2961, the Complete [1, 9] was 0.7497 and the Difference ([1]; complete vs cholesterol-free media, >0 enhanced anti-cancer activity, about 0 neutral, <0 antagonist) was 0.45. The “Cholesterol-free media + simvastatin (0.04 μM)” value [2, 10] was 0.4196, the “Complete Media” value [2, 11] was 0.3685 and the Difference [2, 12] was −0.05.
For `Oc1cc(O)c(Cl)cn1` [Gimeracil], the Difference [1, 3] was 0.07, the Cholesterol-free [1, 8] was 0.8525 and the Complete [1, 9] was 0.9232. The “Cholesterol-free media + simvastatin (0.04 μM)” value [2, 17] was 2.327, the “Complete Media” value [2, 18] was 1.491 and the Difference [2, 16] was −0.84.
Compound `O=C(OCC(O)CO)c1ccccc1Nc1ccnc2cc(Cl)ccc12` (stereo not shown) [Glafenine (hydrochloride)] has a Cholesterol-free [1] of 1.367, a Complete [1] of 1.255 and a Difference [1] of −0.11. For the same compound, the “Cholesterol-free media + simvastatin (0.04 μM)” value [2] was 0.8957, the “Complete Media” value [2] was 0.9245 and the Difference [2] was 0.03.
With `O=C(OCC(O)CO)c1ccccc1Nc1ccnc2cc(Cl)ccc12` (stereo not shown) [Glafenine] the Cholesterol-free [1] was 1.288, the Difference [1] was −0.12 and the “Cholesterol-free media + simvastatin (0.04 μM)” value [2] was 0.9477. The “Complete Media” value [2] was 1.068 and the Difference [2] was 0.12.
Compound `CN1CC[C@@H](NC(=O)Nc2ccc(C#N)cc2)C[C@@H]1c1nc2ccccc2[nH]1` [Glasdegib] has a Cholesterol-free [1, 4] of 1.398, a Complete ([1]; NCI-H292 cells, complete media) of 0.9821 and a Difference [1, 13] of −0.42. The “Cholesterol-free media + simvastatin (0.04 μM)” value [2, 14] was 0.7992, the “Complete Media” value [2, 15] was 0.9809 and the Difference [2, 7] was 0.18.
`CC(C)(C)[C@@H]1NC(=O)O[C@@H]2CCC[C@H]2OC/C=C/C(F)(F)c2nc3ccccc3nc2O[C@@H]2C[C@@H](C(=O)N[C@]3(C(=O)NS(=O)(=O)C4(C)CC4)C[C@H]3C(F)F)N(C2)C1=O` [Glecaprevir] showed a Difference [1, 3] of −0.04, a Cholesterol-free [1, 8] of 0.8867 and a Complete [1, 9] of 0.8478. For the same compound, the “Cholesterol-free media + simvastatin (0.04 μM)” value [2, 5] was 1.021, the “Complete Media” value [2, 6] was 1.126 and the Difference [2, 7] was 0.11.
In the case of `COc1ccc(Cl)cc1C(=O)NCCc1ccc(S(=O)(=O)NC(=O)NC2CCCCC2)cc1` [Glibenclamide], the Difference ([1]; Complete minus Cholesterol-free, greater than 0 enhanced anti-cancer activity, about 0 neutral, below 0 antagonists) is reported as −0.64, the Complete ([1]; NCI-H292 cells in complete media) is reported as 0.9798 and the “Cholesterol-free media + simvastatin (0.04 μM)” value [2, 14] is reported as 1.112. The “Complete Media” value [2, 15] was 0.9567 and the Difference [2, 16] was −0.16.
For `Cc1ccc(S(=O)(=O)NC(=O)NN2CC3CCCC3C2)cc1` (stereo not shown) [Gliclazide], the Difference [1, 3] was 0.04, the Cholesterol-free [1, 8] was 1.079 and the Complete [1, 9] was 1.122. For the same compound, the “Cholesterol-free media + simvastatin (0.04 μM)” value [2, 17] was 1.233, the “Complete Media” value [2, 18] was 0.9583 and the Difference [2, 16] was −0.28.
